The values below come from patent publication US8476265B2, “Compounds-801” (AstraZeneca AB, priority 2010, dated 2013).

Molecules are shown by their SMILES.

For assay [1], the target named is T1, human muscarinic acetylcholine M3 receptor (Homo sapiens, UniProt P20309).
T1 construct: expressed in transfected cells; host or cells: CHO-K1 (Chinese Hamster Ovary) cell membranes
The experiment in a line: Muscarinic 3 receptor binding assay ([3H]NMS competition, SPA), single concentration 1 μM. Conditions: 1 μM compound; % inhibition specific [3H]-NMS binding. In a few lines:
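CHO-K1 membranes expressing human M3 on SPA beads, competition with 0.1 nM [3H]NMS (quarter Kd) in 20 mM HEPES pH 7.4, 5 mM MgCl2, 0.1% BSA, 1% DMSO; compound at 1 μM. 16 h at room temperature. Value is % inhibition of specific binding, non-specific defined with 1 μM atropine.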

Assay [2] has as its target T1, human muscarinic acetylcholine M3 receptor. Nature of the assay: Muscarinic 3 receptor binding assay ([3H]NMS competition, SPA), pIC50. As to conditions: [3H]NMS 0.1 nM, CHO-K1 cell membranes expressing human M3 receptor. The procedure, abridged:
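SPA beads precoated with human M3-expressing CHO-K1 membranes were incubated 16 h at room temperature with serially diluted compound and 0.1 nM [3H]NMS (pH 7.4 HEPES buffer, MgCl2, BSA, 1% DMSO). Atropine (1 μM) defined non-specific binding; pIC50 is the 50% reduction in specific binding.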

Assay [3] concerns the target T2, Adrenergic β2 (Homo sapiens, UniProt P07550).
T2 construct: Adherent H292 cells are removed from tissue culture flasks by treatment with Accutase™ cell detachment solution; endogenous in cells; host or cells: H292 cells
Nature of the assay: Adrenergic β2 mediated cAMP production in H292 cells, single concentration 1 μM. As to conditions: NCI-H292, 1 μM compound, cAMP as percentage of the maximum response generated by 1E-07M formoterol, read-out: β2 % effect @1 uM. The class given is cell-based. The procedure, abridged: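 H292 cells pretreated with rolipram (300 μM final) 10 min, then compound at 1 μM final, 1% DMSO, 60 min at room temperature in HBSS/10 mM HEPES pH 7.4/5 mM glucose. Lysate cAMP quantified by AlphaScreen against a standard curve, as % of maximal response to 1E-07M formoterol.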
(In general: Changes in cAMP serve as a functional read-out for many G protein-coupled receptors.)

Assay [4] has as its target T2, Adrenergic β2. Nature of the assay: Adrenergic β2 mediated cAMP production in H292 cells (AlphaScreen), concentration response. The class given is cell-based. As to conditions: for EC50: 60 min, 300 μM rolipram, read-out: β2 pEC50 (converted); for β2 Intrinsic Activity: fraction relative to the maximum activity determined for formoterol. In a few lines: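 Intracellular cAMP in lysates read by AlphaScreen, calibrated with cAMP standards; curves fitted for pEC50, with intrinsic activity as a fraction of formoterol's maximum. Agonist exposure 60 min at room temperature after 10 min rolipram (300 μM final), 1% DMSO, HEPES-buffered HBSS pH 7.4.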

T1 sequence (P20309 whole entry): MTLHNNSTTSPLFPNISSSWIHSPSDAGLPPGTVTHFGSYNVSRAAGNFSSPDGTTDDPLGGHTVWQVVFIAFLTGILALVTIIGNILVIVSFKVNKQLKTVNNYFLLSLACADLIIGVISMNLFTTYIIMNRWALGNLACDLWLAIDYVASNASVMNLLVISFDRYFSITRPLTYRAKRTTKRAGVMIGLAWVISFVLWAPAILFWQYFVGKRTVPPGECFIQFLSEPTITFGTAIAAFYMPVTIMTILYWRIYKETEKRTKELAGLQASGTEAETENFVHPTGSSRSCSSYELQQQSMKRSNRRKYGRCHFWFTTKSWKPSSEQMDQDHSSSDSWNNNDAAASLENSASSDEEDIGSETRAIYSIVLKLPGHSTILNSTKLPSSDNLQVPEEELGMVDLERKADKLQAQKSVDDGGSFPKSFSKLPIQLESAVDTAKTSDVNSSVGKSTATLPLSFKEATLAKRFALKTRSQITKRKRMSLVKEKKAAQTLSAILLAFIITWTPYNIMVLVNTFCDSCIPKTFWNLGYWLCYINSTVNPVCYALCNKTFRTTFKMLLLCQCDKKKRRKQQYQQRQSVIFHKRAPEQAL
T2 sequence (P07550 whole entry): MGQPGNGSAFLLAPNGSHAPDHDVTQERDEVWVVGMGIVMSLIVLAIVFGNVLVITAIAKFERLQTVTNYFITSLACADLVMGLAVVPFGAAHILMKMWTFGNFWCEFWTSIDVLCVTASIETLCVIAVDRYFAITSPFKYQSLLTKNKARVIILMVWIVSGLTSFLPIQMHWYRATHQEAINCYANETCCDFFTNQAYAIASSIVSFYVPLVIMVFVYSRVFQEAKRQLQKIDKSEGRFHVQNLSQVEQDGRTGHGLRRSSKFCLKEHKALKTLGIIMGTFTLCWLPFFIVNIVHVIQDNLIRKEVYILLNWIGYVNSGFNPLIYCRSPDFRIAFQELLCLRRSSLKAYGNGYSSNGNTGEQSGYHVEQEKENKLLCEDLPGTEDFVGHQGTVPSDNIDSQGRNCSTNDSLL

A word on the inhibition: it is the drop in the measured response relative to a control, in per cent. The term IC50 denotes the concentration needed to halve the response being measured. Take `O=C1COc2c(CCNCCN(C(=O)CCOCCc3cccc(CN4CCC5(CC4)CN(C(=O)c4ccc(Cl)s4)CCO5)c3)C3CCCCC3)ccc(O)c2N1` [Example 106, 3-(3-((4-(5-Chlorothiophene-2-carbonyl)-1-oxa-4,9-diazaspiro[5.5]undecan-9-yl)methyl)phenethoxy)-N-cyclohexyl-N-(2-(2-(5-hydroxy-3-oxo-3,4-dihydro-2H-benzo[b][1,4]oxazin-8-yl)ethylamino)ethyl)propanamide]: in assay [1], testing at 1 µM gave an inhibition of 100%. The same compound showed an IC50 in assay [2] of 0.631 nM. On Adrenergic β2 [3], the percent of formoterol maximum response at 1 µM worked out at 102%. Also, at Adrenergic β2 [4], the EC50 is 50.1 nM and the “β2 Intrinsic Activity” value worked out at 1.0.
The compound `O=C1COc2c(CCNCCN(C(=O)CCOCCc3cccc(CN4CCC5(CC4)CN(C(=O)C4COc6ccccc6O4)CCO5)c3)C3CCCCC3)ccc(O)c2N1` (stereo not drawn) [Example 115, N-Cyclohexyl-3-(3-((4-(2,3-dihydrobenzo[b][1,4]dioxine-2-carbonyl)-1-oxa-4,9-diazaspiro[5.5]undecan-9-yl)methyl)phenethoxy)-N-(2-(2-(5-hydroxy-3-oxo-3,4-dihydro-2H-benzo[b][1,4]oxazin-8-yl)ethylamino)ethyl)propanamide] came in with an inhibition at 1 µM in assay [1] of 100%. Also, in assay [2], the 50% inhibitory concentration (IC50) was 0.158 nM. In addition, at Adrenergic β2 [3], the percent of formoterol maximum response at 1 µM worked out at 93%. For the same compound, on Adrenergic β2 [4], the EC50 is 126 nM and the “β2 Intrinsic Activity” value was 0.6.
Turning to `O=C1COc2c(CCNCCN(C(=O)CCOCCc3cccc(CN4CCC5(CC4)CN(C(=O)c4cnc6ccccc6n4)CCO5)c3)C3CCCCC3)ccc(O)c2N1` [Example 119, N-Cyclohexyl-N-(2-(2-(5-hydroxy-3-oxo-3,4-dihydro-2H-benzo[b][1,4]oxazin-8-yl)ethylamino)ethyl)-3-(3-((4-(quinoxaline-2-carbonyl)-1-oxa-4,9-diazaspiro[5.5]undecan-9-yl)methyl)phenethoxy)propanamide], testing at 1 µM in assay [1] gave an inhibition of 100%. This compound had an IC50 in assay [2] of 2 nM. The percent of formoterol maximum response at 1 µM at Adrenergic β2 [3] is 84%. For the same compound, at Adrenergic β2 [4], the EC50 is 158 nM and the “β2 Intrinsic Activity” value is on record as more than 0.9.
In assay [1], `O=C1COc2c(CCNCCN(C(=O)CCOCCc3cccc(CN4CCC5(CC4)CN(C(=O)C(O)c4ccccc4Cl)CCO5)c3)C3CCCCC3)ccc(O)c2N1` (stereo not drawn) [Example 128, 3-(3-((4-(2-(2-Chlorophenyl)-2-hydroxyacetyl)-1-oxa-4,9-diazaspiro[5.5]undecan-9-yl)methyl)phenethoxy)-N-cyclohexyl-N-(2-(2-(5-hydroxy-3-oxo-3,4-dihydro-2H-benzo[b][1,4]oxazin-8-yl)ethylamino)ethyl)propanamide] displayed an inhibition at 1 µM of 99%. In assay [2], this compound showed a concentration for half-maximal inhibition (IC50) of 1 nM. The percent of formoterol maximum response at 1 µM at Adrenergic β2 [3] worked out at 125%.
Compound `Cc1csc(C(=O)N2CCOC3(CCN(Cc4cccc(CCOCCC(=O)N(CCNCCc5ccc(O)c6c5OCC(=O)N6)C5CCCCC5)c4)CC3)C2)c1` [Example 138, N-Cyclohexyl-N-(2-(2-(5-hydroxy-3-oxo-3,4-dihydro-2H-benzo[b][1,4]oxazin-8-yl)ethylamino)ethyl)-3-(3-((4-(4-methythiophene-2-carbonyl)-1-oxa-4,9-diazaspiro[5.5]undecan-9-yl)methyl)phenethoxy)propanamide] yielded an inhibition at 1 µM in assay [1] of 100%. In addition, in assay [2], the 50% inhibitory concentration (IC50) was 0.2 nM. Moreover, on Adrenergic β2 [3], the percent of formoterol maximum response at 1 µM turned out to be 92%. For the same compound, on Adrenergic β2 [4], the EC50 is 126 nM and the “β2 Intrinsic Activity” value was determined as 0.9.
For `O=C1COc2c(CCNCCN(C(=O)CCOCCc3cccc(CN4CCC5(CC4)CN(C(=O)Cc4ccc6c(c4)OCO6)CCO5)c3)C3CCCCC3)ccc(O)c2N1` [Example 140, 3-(3-((4-(2-(Benzo[d][1,3]dioxol-5-yl)acetyl)-1-oxa-4,9-diazaspiro[5.5]undecan-9-yl)methyl)phenethoxy)-N-cyclohexyl-N-(2-(2-(5-hydroxy-3-oxo-3,4-dihydro-2H-benzo[b][1,4]oxazin-8-yl)ethylamino)ethyl)propanamide], in that order: 100%, 1 nM, 100%, 200 nM and 1.0.
For `CCc1cc(C(=O)N2CCOC3(CCN(Cc4cccc(CCOCCC(=O)N(CCNCCc5ccc(O)c6c5OCC(=O)N6)C5CCCCC5)c4)CC3)C2)cs1` [Example 144, N-Cyclohexyl-3-(3-((4-(5-ethylthiophene-3-carbonyl)-1-oxa-4,9-diazaspiro[5.5]undecan-9-yl)methyl)phenethoxy)-N-(2-(2-(5-hydroxy-3-oxo-3,4-dihydro-2H-benzo[b][1,4]oxazin-8-yl)ethylamino)ethyl)propanamide], in that order: 100%, 0.158 nM, 100%, 39.8 nM and 1.0.
For `O=C1COc2c(CCNCCN(C(=O)CCOCCc3cccc(CN4CCC5(CC4)CN(C(=O)c4cc6ccccn6n4)CCO5)c3)C3CCCCC3)ccc(O)c2N1` [Example 146, N-Cyclohexyl-N-(2-(2-(5-hydroxy-3-oxo-3,4-dihydro-2H-benzo[b][1,4]oxazin-8-yl)ethylamino)ethyl)-3-(3-((4-(pyrazolo[1,5-a]pyridine-2-carbonyl)-1-oxa-4,9-diazaspiro[5.5]undecan-9-yl)methyl)phenethoxy)propanamide], in that order: 100%, 0.398 nM, 96%, 79.4 nM and 0.9.
`CC(C)c1cc(C(=O)N2CCOC3(CCN(Cc4cccc(CCOCCC(=O)N(CCNCCc5ccc(O)c6c5OCC(=O)N6)C5CCCCC5)c4)CC3)C2)no1` [Example 147, N-Cyclohexyl-N-(2-(2-(5-hydroxy-3-oxo-3,4-dihydro-2H-benzo[b][1,4]oxazin-8-yl)ethylamino)ethyl)-3-(3-((4-(5-isopropylisoxazole-3-carbonyl)-1-oxa-4,9-diazaspiro[5.5]undecan-9-yl)methyl)phenethoxy)propanamide] came in with an inhibition at 1 µM in assay [1] of 99%. The compound further gave an IC50 in assay [2] of 1.58 nM. Also, on Adrenergic β2 [3], the percent of formoterol maximum response at 1 µM is 107%. Moreover, at Adrenergic β2 [4], the EC50 was 158 nM and the “β2 Intrinsic Activity” value is given as 1.0.
The matching figures for `O=C1COc2c(CCNCCN(C(=O)CCOCCc3cccc(CN4CCC5(CC4)CN(C(=O)c4ccc(C(F)(F)F)cn4)CCO5)c3)C3CCCCC3)ccc(O)c2N1` [Example 149, N-Cyclohexyl-N-(2-(2-(5-hydroxy-3-oxo-3,4-dihydro-2H-benzo[b][1,4]oxazin-8-yl)ethylamino)ethyl)-3-(3-((4-(5-(trifluoromethyl)picolinoyl)-1-oxa-4,9-diazaspiro[5.5]undecan-9-yl)methyl)phenethoxy)propanamide]: 99%, 0.501 nM, 90%, 126 nM and 1.0.
